This passage reports inhibition results from patent US20100137313A1 (ASTRAZENECA AB, priority 2008, published 2010).

Chain of S. pneumoniae Topoisomerase IV ATPase (ParE) (Q59961 whole entry): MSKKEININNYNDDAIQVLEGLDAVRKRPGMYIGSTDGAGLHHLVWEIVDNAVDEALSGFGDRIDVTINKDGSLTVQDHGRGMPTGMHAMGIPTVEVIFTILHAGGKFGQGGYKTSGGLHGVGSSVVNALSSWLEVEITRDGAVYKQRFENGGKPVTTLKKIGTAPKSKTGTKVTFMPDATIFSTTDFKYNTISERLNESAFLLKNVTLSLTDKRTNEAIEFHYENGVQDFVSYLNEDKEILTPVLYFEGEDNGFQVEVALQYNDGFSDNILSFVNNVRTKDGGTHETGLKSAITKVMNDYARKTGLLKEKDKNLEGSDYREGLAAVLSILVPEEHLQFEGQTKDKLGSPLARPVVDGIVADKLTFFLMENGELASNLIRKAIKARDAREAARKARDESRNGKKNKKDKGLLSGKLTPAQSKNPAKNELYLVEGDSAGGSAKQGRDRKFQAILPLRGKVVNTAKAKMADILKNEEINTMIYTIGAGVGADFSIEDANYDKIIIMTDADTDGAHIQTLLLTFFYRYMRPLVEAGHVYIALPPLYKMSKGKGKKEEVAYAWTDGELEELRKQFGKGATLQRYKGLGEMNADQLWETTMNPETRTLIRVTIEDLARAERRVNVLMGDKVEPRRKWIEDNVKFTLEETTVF

The target in this test is S. pneumoniae Topoisomerase IV ATPase (ParE) (Streptococcus pneumoniae serotype 4, UniProt Q59961). In words: S. pneumoniae Topoisomerase IV ATPase inhibition. The settings on record: values marked * are an average of two or more data points, read-out: % Inh (13 μM) of S. pneumoniae Topoisomerase IV ATPase. The format is biochemical. The procedure, abridged:
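Phosphate release by ParE ATPase from S. pneumoniae read colorimetrically (malachite green, 650 nm), enzyme 1.25 nM, ATP 160 μM, salmon sperm DNA present, buffer 20 mM Tris pH 8.0 with 8 mM MgCl2. IC50 over 10 compound concentrations, EDTA (20 μM) and DMSO controls defining inhibition range.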
Regarding `CN(CC(=O)O)c1cccc(-c2cnc(Nc3ccc(F)c(Cl)c3)nc2-n2ccc(C(F)(F)F)n2)c1` [Example 598, N-(3-{2-[(3-chloro-4-fluorophenyl)amino]-4-[3-(trifluoromethyl)-1H-pyrazol-1-yl]pyrimidin-5-yl}phenyl)-N-methylglycine], the inhibition at 13 µM came to 82%.

`COc1cc(Nc2ncc(-c3cc(C(=O)O)cn(C)c3=O)c(-n3ccc(C(F)(F)F)n3)n2)cc(OC)c1` [Example 592, 5-(2-(3,5-dimethoxyphenylamino)-4-(3-(trifluoromethyl)-1H-pyrazol-1-yl)pyrimidin-5-yl)-1-methyl-6-oxo-1,6-dihydropyridine-3-carboxylic acid]: the inhibition at 13 µM came out at 100%.

For `COc1ncc(-c2cnc(Nc3cc(C)cc(C#N)c3)nc2-n2ccc(C(F)(F)F)n2)cc1C(=O)O` [Example 780, 5-{2-[(3-cyano-5-methylphenyl)amino]-4-[3-(trifluoromethyl)-1H-pyrazol-1-yl]pyrimidin-5-yl}-2-methoxypyridine-3-carboxylic acid], the inhibition at 13 µM was found to be 100%.

`COc1cc(Nc2ncc(-c3cncc(C(=O)O)c3)c(-n3nc(C(F)(F)F)cc3C)n2)cc(S(C)(=O)=O)c1` [Example 673, 5-(2-{[3-methoxy-5-(methylsulfonyl)phenyl]amino}-4-[5-methyl-3-(trifluoromethyl)-1H-pyrazol-1-yl]pyrimidin-5-yl)pyridine-3-carboxylic acid]: the inhibition at 13 µM worked out at 100%.

Consider `CCOC(=O)c1cc2cc(-c3cnc(Nc4ccc(F)c(Cl)c4)nc3NCCCOC)ccc2[nH]1` [Example 1052, Ethyl 5-(2-(3-chloro-4-fluorophenylamino)-4-(3-methoxyproylamino)pyrimidin-5-yl)-1H-indole-2-carboxylate], for which the inhibition at 13 µM turned out to be 0%.

As to `COCCCNc1nc(Nc2ccc(F)c(Cl)c2)ncc1-c1cncc(S(C)(=O)=O)c1` [Example 987, N2-(3-chloro-4-fluorophenyl)-N4-(3-methoxypropyl)-5-(5-(methylsulfonyl)pyridin-3-yl)pyrimidine-2,4-diamine], the inhibition at 13 µM was 30%.

In the case of `CCCS(=O)(=O)NC(=O)c1cc(-c2cnc(Nc3cc(OC)cc(OC)c3)nc2-n2ccc(C(F)(F)F)n2)cnc1OC` [Example 816, 5-{2-[(3,5-dimethoxyphenyl)amino]-4-[3-(trifluoromethyl)-1H-pyrazol-1-yl]pyrimidin-5-yl}-2-methoxy-N-(propylsulfonyl)pyridine-3-carboxamide], the inhibition at 13 µM turned out to be 100%.

For the compound `CCC(C)Nc1nc(Nc2ccc(F)c(Cl)c2)ncc1-c1ccc(Cl)c(NC(=O)OC(C)(C)C)c1` (stereo not drawn) [Example 1110, tert-butyl N-[5-[4-(butan-2-ylamino)-2-[(3-chloro-4-fluorophenyl)amino]pyrimidin-5-yl]-2-chlorophenyl]carbamate], the inhibition at 13 µM came to 99%.

Consider `CN(C)CCCNc1nc(Nc2ccc(F)c(Cl)c2)ncc1-c1ccc(C(=O)NCc2ccccc2)cc1` [Example 365, N-benzyl-4-(2-(3-chloro-4-fluorophenylamino)-4-(3-(dimethylamino)propylamino)pyrimidin-5-yl) benzamide], for which the inhibition at 13 µM was determined as 110%.

For `CS(=O)(=O)c1cccc(Nc2ncc(-c3cccc(/C=C/C(=O)O)c3)c(-n3ccc(C(F)(F)F)n3)n2)c1` [Example 623, (2E)-3-[3-(2-{[3-(methylsulfonyl)phenyl]amino}-4-[3-(trifluoromethyl)-1H-pyrazol-1-yl]pyrimidin-5-yl)phenyl]prop-2-enoic acid], the inhibition at 13 µM was determined as 100%.

For the compound `Fc1ccc(Nc2ncc(-c3cncnc3)c(NCCc3c[nH]cn3)n2)cc1Cl` [Example 471, N^2-(3-chloro-4-fluorophenyl)-N^4-[2-(1H-imidazol-4-yl)ethyl]-5,5′-bipyrimidine-2,4-diamine], the inhibition at 13 µM came to 84%.

With `COc1cc(Nc2ncc(-c3cnc(OC)c(C#N)c3)c(-n3nc(C(F)(F)F)cc3C)n2)cc(OC)c1` [Example 868, 5-(2-(3,5-dimethoxyphenylamino)-4-(5-methyl-3-(trifluoromethyl)-1H-pyrazol-1-yl)pyrimidin-5-yl)-2-methoxynicotinonitrile], the inhibition at 13 µM is 6%.

On to `COc1cc(Nc2ncc(-c3cnc(OC)c(C(=O)NOCCN4CCOCC4)c3)c(-n3ccc(C(F)(F)F)n3)n2)cc(OC)c1` [Example 1167, 5-(2-(3,5-dimethoxyphenylamino)-4-(3-(trifluoromethyl)-1H-pyrazol-1-yl)pyrimidin-5-yl)-2-methoxy-N-(2-morpholinoethoxy)nicotinamide], for which the inhibition at 13 µM is 100%.

With `O=C(O)/C=C/c1cccc(-c2cnc(Nc3cccc(F)c3)nc2-n2ccc(C(F)(F)F)n2)c1` [Example 621, (2E)-3-(3-{2-[(3-fluorophenyl)amino]-4-[3-(trifluoromethyl)-1H-pyrazol-1-yl]pyrimidin-5-yl}phenyl)prop-2-enoic acid], the inhibition at 13 µM was 100%.

Regarding `Nc1cc(C(=O)O)cc(-c2cnc(Nc3ccc(F)c(Cl)c3)nc2N2CCOCC2)c1` [Example 491, 3-amino-5-{2-[(3-chloro-4-fluorophenyl)amino]-4-(morpholin-4-yl)pyrimidin-5-yl}benzoic acid], the inhibition at 13 µM was found to be 87%.

`CN(C)CCCNc1nc(Nc2ccc(F)c(Cl)c2)ncc1-c1cccc(NS(C)(=O)=O)c1` [Example 3, N-(3-(2-(3-chloro-4-fluorophenylamino)-4-(3-(dimethylamino)propylamino)pyrimidin-5-yl)phenyl)methanesulfonamide]: the inhibition at 13 µM was 56.8%.

On to `NC(=O)c1cncc(-c2cnc(Nc3ccc(F)c(Cl)c3)nc2NCCc2ccncc2)c1` [Example 474, 5-(2-[(3-chloro-4-fluorophenyl)amino]-4-{[2-(pyridin-4-yl)ethyl]amino}pyrimidin-5-yl)-pyridine-3-carboxamide], for which the inhibition at 13 µM was 100%.

For `COc1ncc(-c2cnc(Nc3ccc(F)c(Cl)c3)nc2NCCc2c[nH]cn2)cn1` [Example 462, N^2-(3-chloro-4-fluorophenyl)-N^4-[2-(1H-imidazol-4-yl)ethyl]-2′-methoxy-5,5′-bipyrimidine-2,4-diamine], the inhibition at 13 µM amounted to 85%.

Regarding `CC(=O)Nc1ccn(-c2nc(Nc3ccc(F)c(Cl)c3)ncc2-c2cccc(/C=C/C(=O)O)c2)n1` [Example 566, (2E)-3-(3-{4-[3-(acetylamino)-1H-pyrazol-1-yl]-2-[(3-chloro-4-fluorophenyl)amino]pyrimidin-5-yl}phenyl)prop-2-enoic acid], the inhibition at 13 µM worked out at 52%.

As to `O=C(O)c1cncc(-c2cnc(Nc3ccc(F)c(Cl)c3)nc2N2CCC(O)CC2)c1` [Example 244, 5-[2-[(3-chloro-4-fluorophenyl)amino]-4-(4-hydroxypiperidin-1-yl)pyrimidin-5-yl]pyridine-3-carboxylic acid], the inhibition at 13 µM was found to be 76.3%.

`CONC(=O)/C=C/c1cccc(-c2cnc(Nc3cc(OC)cc(C(F)(F)F)c3)nc2NCCc2ccncc2)c1` [Example 374, (E)-N-methoxy-3-(3-(2-(3-methoxy-5-(trifluoromethyl)phenylamino)-4-(2-(pyridin-4-yl)ethylamino)pyrimidin-5-yl)phenyl)acrylamide]: the inhibition at 13 µM turned out to be 81.2%.

Take `COc1cc(Nc2ncc(-c3cnc(OC)c(C(=O)NS(C)(=O)=O)c3)c(-n3nc(C(F)(F)F)cc3C)n2)cc(OC)c1` [Example 909, 5-(2-(3,5-dimethoxyphenylamino)-4-(5-methyl-3-(trifluoromethyl)-1H-pyrazol-1-yl)pyrimidin-5-yl)-2-methoxy-N-(methylsulfonyl)nicotinamide]: the inhibition at 13 µM is 100%.

In the case of `CCOC(=O)c1cncc(-c2cnc(Nc3ccc(F)c(Cl)c3)nc2N2CCC(N3CCOCC3)CC2)c1` [Example 119, ethyl 5-[2-[(3-chloro-4-fluorophenyl)amino]-4-(4-morpholin-4-ylpiperidin-1-yl)pyrimidin-5-yl]pyridine-3-carboxylate], the inhibition at 13 µM was determined as 32%.

As for `COc1cccc(Nc2ncc(-c3cncc(C(=O)O)c3)c(N3CCOCC3)n2)c1` [Example 439], the inhibition at 13 µM came out at 62%.

As to `NC(=O)c1cncc(-c2cnc(Nc3ccc(F)c(Cl)c3)nc2-n2ccc(C(F)(F)F)n2)c1` [Example 1124, 5-[2-[(3-chloro-4-fluorophenyl)amino]-4-[3-(trifluoromethyl)pyrazol-1-yl]pyrimidin-5-yl]pyridine-3-carboxamide], the inhibition at 13 µM is 42%.

Turning to `COc1cc(Nc2ncc(-c3cnc(OC)c(C(=O)NS(=O)(=O)c4cccc(C(C)=O)c4)c3)c(-n3nc(C(F)(F)F)cc3C)n2)cc(OC)c1` [Example 844, N-[(3-acetylphenyl)sulfonyl]-5-{2-[(3,5-dimethoxyphenyl)amino]-4-[5-methyl-3-(trifluoromethyl)-1H-pyrazol-1-yl]pyrimidin-5-yl}-2-methoxypyridine-3-carboxamide], the inhibition at 13 µM came to 100%.

Turning to `O=C(O)c1cc(-c2cnc(Nc3ccc(F)c(Cl)c3)nc2-n2ccc(C(F)(F)F)n2)c[nH]c1=O` [Example 1092, 5-(2-(3-Chloro-4-fluorophenylamino)-4-(3-(trifluoromethyl)-1H-pyrazol-1-yl)pyrimidin-5-yl)-2-oxo-1,2-dihydropyridine-3-carboxylic acid], the inhibition at 13 µM amounted to 100%.

For `Fc1ccc(Nc2ncc(-c3cncnc3)c(N3CCOCC3)n2)cc1Cl` [Example 76, N-(3-chloro-4-fluorophenyl)-4-morpholin-5,5′-bipyrimidin-2-amine], the inhibition at 13 µM was determined as 79.3%.

Regarding `COc1cc(Nc2ncc(-c3cnc(OC)c(C(=O)NS(=O)(=O)CC(F)(F)F)c3)c(-n3nc(C(F)(F)F)cc3C)n2)cc(OC)c1` [Example 835, 5-{2-[(3,5-dimethoxyphenyl)amino]-4-[5-methyl-3-(trifluoromethyl)-1H-pyrazol-1-yl]pyrimidin-5-yl}-2-methoxy-N-[(2,2,2-trifluoroethyl)sulfonyl]pyridine-3-carboxamide], the inhibition at 13 µM was 95%.

Consider `O=C(O)c1cncc(-c2cnc(Nc3ccc(F)c(S(=O)(=O)N4CCOCC4)c3)nc2N2CCOCC2)c1` [Example 444], for which the inhibition at 13 µM is 7%.
